Measured values published in PMC3871618 (PLoS ONE, 2013).
Like-named read-outs stand apart in the source and are kept apart here.

Tests used:
ABCB1 transporter [1] = target: T1, ABCB1 transporter (Homo sapiens, UniProt P08183); experiment: DNR accumulation in MDCKII-ABCB1 cells (flow cytometry), normalized to parental MDCKII; format: cell-based; settings: 20 µM CDKi, 2 µM DNR
T1 construct: expressed in transfected cells; host or cells: MDCKII (canine kidney) cells transduced with human ABCB1, from Prof; Piet Borst and Dr. Alfred Schinkel (The Netherlands Cancer Institute)
Procedure: Briefly, MDCKII-ABCB1 and MDCKII parent cells were seeded at 1.5×10^5 cells per well on a 12-well plate 24 h before the experiment. The medium was removed and the cells were washed with prewarmed PBS. The cells were then preincubated in Opti-MEM, with or without CDKi or LY at 37°C in 5% CO2 for 30 min. […] Accumulation was stopped by cooling the samples on ice, removing the medium and washing twice with ice-cold PBS. The cells were then detached from the plates with 10× trypsin-EDTA, resuspended in PBS with 2% FBS and transferred to Eppendorf tubes, which were placed on ice until analysis. […] The median fluorescence (MF) intensity of 10,000 measured cells was used to compare the fluorescence resulting from each of the treatments. […] The MF intensity of untreated cells was subtracted from fluorescence values obtained for all the measured samples.
To quantify the inhibitory effect of each tested compound on the ABCB1 transporter in the MDCKII-ABCB1 cell line, the ratio between the MF intensity with or without inhibitor was calculated and normalized to the effect in the parental MDCKII cell line according to the following equation [30]: [drawing 1]

ABCG2 = system: ABCG2; design: method as in PMID 22173067, PMID 24116053; settings: in vitro and in situ; cited from earlier work
ABCB1 [2] = target: T2, ABCB1 (Homo sapiens, UniProt P08183); experiment: ABCB1-ATPase inhibition assay (verapamil-stimulated), Sf9 membranes; format: biochemical; design: purchased Solvo Biotechnology (Szeged, Hungary); host or cells: Sf9 insect cell membranes; settings: 140 nM to 300 µM
Procedure: (§1) The drug efflux function of ABCB1 is linked to hydrolysis of ATP by ATPase, which is stimulated in the presence of ABCB1 substrates. In the activation assay, transported substrates can stimulate baseline vanadate-sensitive ATPase activity, whereas in the inhibition assay, which is carried out in the presence of a known activator of the transporter, inhibitors may reduce the maximal vanadate-sensitive ATPase activity. ATPase activity was measured by assessing the amount of phosphate liberated from ATP by the ABCB1 transporter using the […] ATPase kit for ABCB1 according to the manufacturer’s instructions. For this purpose, Sf9 cell membranes (4 µg protein per well) were mixed with each of the test compounds (singly) in solutions with concentrations ranging from 140 nM to 300 µM, then incubated at 37°C for 10 min in the presence or absence of 1.2 mM sodium orthovanadate. The reaction was started by adding 10 mM ATP solution (magnesium salt) to the reaction mixture, stopped 10 min later, and the absorbance at 590 nm was measured after a further 30 min incubation (GeniosPlus apparatus; Tecan, Männedorf, Switzerland). The ATPase activity in each sample was determined as the difference in liberated amounts of phosphate measured in the presence and absence of 1.2 mM sodium orthovanadate. Phosphate standards were prepared in each plate and verapamil served as a positive control for ABCB1 stimulation. The results are expressed as vanadate-sensitive ATPase activities.

ABCB1 transporter [3] = target: T1, ABCB1 transporter; experiment: HOE (Hoechst 33342) accumulation in MDCKII-ABCB1 cells; format: cell-based; settings: 8 µM HOE, end-point fluorescence at 30 min, 50% of each compound's own maximum inhibitory activity, read-out: IC50, inhibition of ABCB1-mediated efflux of HOE
Procedure: (§2) To investigate the inhibitory activity of CDKi on ABCB1, the intracellular accumulation of HOE, a fluorescent ABCB1 substrate, was examined in both MDCKII-ABCB1 and MDCKII parent cell lines in the presence and absence of the tested compounds. The reduction in fluorescence intensity in ABCB1-transduced cells indicates the efflux activity of the ABCB1 transporter, its inhibition increases HOE accumulation and thus the intracellular fluorescence.
(§3) The assay was conducted as previously described and optimized for application in ABCB1-expressing cells. Briefly, MDCKII-ABCB1 and MDCKII parent cells were seeded at 5×10^4 cells per well on a 96-well culture plate and used for accumulation experiments after 24 h cultivation. The medium was removed and cells were washed twice with prewarmed phosphate buffered saline (PBS) at pH 7.4.

ABCB1 [4] = target: T2, ABCB1; experiment: ABCB1-ATPase activation assay (baseline), Sf9 membranes; format: biochemical; design: purchased Solvo Biotechnology (Szeged, Hungary); host or cells: Sf9 insect cell membranes; settings: for Effect on baseline vanadate-sensitive ATPase activity of ABCB1: activation assay, 140 nM to 300 µM; for ABCB1 substrate classification: from ATPase activity in Sf9 membranes overexpressing human ABCB1
Procedure: as §1

MDCKII-ABCB1 cells = experiment: XTT cytotoxicity, CDKi + DNR combination (Chou-Talalay); format: cell-based; settings: for Combination index (CI) category, combination with DNR: constant ratio
Procedure: (§4) 1×10^4 MDCKII-ABCB1, 1×10^4 MDCKII parent, 2×10^4 HCT-8, or 2×10^4 HepG2 cells were grown in 96-well culture plates and incubated for 24 h. Individual CDKi diluted with growth medium were added to the exponentially growing cells and the resulting mixtures were incubated for 72 h at 37°C, 5% CO2. Cytotoxicity was then assessed using the XTT assay as follows: cells were incubated with 0.167 mg/mL XTT and 4 µM PMS in Opti-MEM for 2 h. The absorbance of the soluble formazan released was measured at 470 nm on a microplate reader (Tecan, Männedorf, Switzerland).
(§5) The combination index (CI) method of Chou-Talalay, based on the median-effect equation, was used to calculate combined drug effects. This approach offers quantitative definitions for additive, synergistic and antagonistic effects (CI values of 0.9–1.1, <0.9, and >1.1, respectively). Combination experiments were performed in a constant-ratio experimental design as recommended for the most efficient data analysis, and the generated data were used to quantify dose-reduction indices (DRI) for pairs of the tested drugs. DRI represents the fold-change of a focal effect when individual agents are used simultaneously relative to their separate effects, and their activity is synergistic if DRI > 1. […] The data acquired from these drug combination experiments were analyzed using CompuSyn ver. 3.0.1 software (ComboSyn Inc., Paramus, NJ, USA).

MDCKII parent cells = experiment: as above; format: cell-based; settings: 72 h; for DRI at Fa 0.5, drug II (CDKi) / DRI at Fa 0.75, drug II (CDKi) / DRI at Fa 0.9, drug II (CDKi): CDKi combined with DNR at constant ratio; for Fa above which combination with DNR is synergistic: constant ratio
Procedure: as §4, §5

HepG2 cells = experiment: as above; format: cell-based, human; settings: HepG2, 72 h; for Fa values for synergism of combination with DNR: constant ratio; for DRI at Fa 0.75, drug II (CDKi) / DRI at Fa 0.9, drug II (CDKi): CDKi combined with DNR at constant ratio
Procedure: as §4, §5

HCT-8 cells = experiment: as above; settings: HCT-8, 72 h; for Fa at which combination with DNR shows synergistic cytotoxic effects: constant ratio; for DRI at Fa 0.5, drug II (CDKi) / DRI at Fa 0.75, drug II (CDKi) / DRI at Fa 0.9, drug II (CDKi): CDKi combined with DNR at constant ratio
Procedure: as §4, §5

ABCB1 [5] = target: T2, ABCB1; experiment: HOE (Hoechst 33342) accumulation in MDCKII-ABCB1 cells; format: cell-based; design: expressed in transfected cells; host or cells: MDCKII (canine kidney) cells transduced with human ABCB1, from Prof; Piet Borst and Dr. Alfred Schinkel (The Netherlands Cancer Institute); settings: human, probe Hoechst 33342 (HOE), 8 µM, CDKi applied at their respective IC50 concentrations, % as strongly as LY, read-out: Inhibition of HOE efflux relative to LY
Procedure: as §2, §3

[6] = MDCKII-ABCB1, 72 h, CDKi combined with DNR at constant ratio

T1 sequence (P08183 whole entry): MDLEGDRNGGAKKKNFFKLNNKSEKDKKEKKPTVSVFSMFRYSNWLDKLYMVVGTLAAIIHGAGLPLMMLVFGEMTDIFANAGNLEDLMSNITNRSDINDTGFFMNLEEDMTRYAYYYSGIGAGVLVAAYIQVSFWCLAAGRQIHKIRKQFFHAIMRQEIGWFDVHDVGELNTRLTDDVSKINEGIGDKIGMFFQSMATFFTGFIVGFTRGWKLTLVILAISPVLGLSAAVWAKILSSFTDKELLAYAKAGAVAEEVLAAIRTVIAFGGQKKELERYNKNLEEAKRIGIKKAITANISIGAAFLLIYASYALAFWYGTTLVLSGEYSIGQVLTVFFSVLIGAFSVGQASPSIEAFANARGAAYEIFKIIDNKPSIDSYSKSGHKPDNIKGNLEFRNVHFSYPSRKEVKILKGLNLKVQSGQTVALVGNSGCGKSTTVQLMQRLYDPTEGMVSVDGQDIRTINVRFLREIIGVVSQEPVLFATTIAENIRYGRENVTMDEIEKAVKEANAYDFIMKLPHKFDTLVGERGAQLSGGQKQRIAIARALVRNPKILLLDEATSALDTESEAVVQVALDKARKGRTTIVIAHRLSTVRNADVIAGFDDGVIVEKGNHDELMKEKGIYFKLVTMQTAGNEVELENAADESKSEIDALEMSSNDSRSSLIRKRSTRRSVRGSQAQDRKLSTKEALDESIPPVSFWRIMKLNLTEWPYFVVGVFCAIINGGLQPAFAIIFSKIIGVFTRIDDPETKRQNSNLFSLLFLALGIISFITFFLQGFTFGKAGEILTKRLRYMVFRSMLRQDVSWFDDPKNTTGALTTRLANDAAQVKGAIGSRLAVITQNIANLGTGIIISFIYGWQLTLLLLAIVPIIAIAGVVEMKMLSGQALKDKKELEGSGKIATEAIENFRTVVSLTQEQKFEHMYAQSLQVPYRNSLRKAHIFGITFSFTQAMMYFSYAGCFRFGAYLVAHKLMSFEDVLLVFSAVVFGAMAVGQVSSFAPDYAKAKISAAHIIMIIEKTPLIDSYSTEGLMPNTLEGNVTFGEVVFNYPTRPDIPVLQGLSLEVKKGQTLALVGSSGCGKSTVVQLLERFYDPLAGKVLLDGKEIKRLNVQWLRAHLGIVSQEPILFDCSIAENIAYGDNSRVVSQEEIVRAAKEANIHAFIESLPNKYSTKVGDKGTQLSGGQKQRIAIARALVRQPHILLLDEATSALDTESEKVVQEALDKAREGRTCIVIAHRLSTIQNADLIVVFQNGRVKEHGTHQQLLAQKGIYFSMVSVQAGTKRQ
T2 sequence (P08183 whole entry): as above

CC[C@H](CO)Nc1nc(NCc2ccccc2O)c2ncn(C(C)C)c2n1 [olomoucine II]
ABCB1 inhibition (DNR efflux) (ABCB1 transporter [1]): significant (P<0.05) ABCB1 inhibition
ABCG2 inhibition (ABCG2): can inhibit ABCG2 in vitro and in situ
Effect on verapamil-stimulated vanadate-sensitive ATPase activity of ABCB1 (ABCB1 [2]): considerably and dose-dependently reduced
IC50 (ABCB1 transporter [3]): 6.4 µM
Effect on baseline vanadate-sensitive ATPase activity of ABCB1 (ABCB1 [4]): increased the baseline vanadate-sensitive ATPase activity
ABCB1 substrate classification (ABCB1 [4]): ABCB1 substrate and inhibitor
Combination index (CI) category, combination with DNR (MDCKII-ABCB1 cells; MDCKII-ABCB1, 72 h): synergistic category of drug combination effects across almost the whole fraction of cells affected (Fa) range
DRI at Fa 0.5, drug II (CDKi) (MDCKII-ABCB1 cells; [6]): 2.83±0.27
DRI at Fa 0.75, drug II (CDKi) (MDCKII-ABCB1 cells; [6]): 2.84±0.19
DRI at Fa 0.9, drug II (CDKi) (MDCKII-ABCB1 cells; [6]): 2.86±0.10
DRI at Fa 0.5, drug II (CDKi) (MDCKII parent cells): 2.51±0.08
DRI at Fa 0.75, drug II (CDKi) (MDCKII parent cells): 2.63±0.05
DRI at Fa 0.9, drug II (CDKi) (MDCKII parent cells): 2.75±0.02
Fa above which combination with DNR is synergistic (MDCKII parent cells): exceeded 0.4
Fa values for synergism of combination with DNR (HepG2 cells): 0.75
DRI at Fa 0.75, drug II (CDKi) (HepG2 cells): 2.08±0.03
DRI at Fa 0.9, drug II (CDKi) (HepG2 cells): 2.38±0.04
Fa at which combination with DNR shows synergistic cytotoxic effects (HCT-8 cells): > 0.1
DRI at Fa 0.5, drug II (CDKi) (HCT-8 cells): 3.04±0.13
DRI at Fa 0.75, drug II (CDKi) (HCT-8 cells): 2.98±0.06
DRI at Fa 0.9, drug II (CDKi) (HCT-8 cells): 2.92±0.05
inhibition at 30 min (ABCB1 [5]): 48%

CC(C)[C@H](CO)Nc1nc(Nc2cccc(Cl)c2)c2ncn(C(C)C)c2n1 [purvalanol A]
ABCB1 inhibition (DNR efflux) (ABCB1 transporter [1]): significant (P<0.05) ABCB1 inhibition
ABCG2 inhibition (ABCG2): can inhibit ABCG2 in vitro and in situ
Effect on verapamil-stimulated vanadate-sensitive ATPase activity of ABCB1 (ABCB1 [2]): considerably and dose-dependently reduced
IC50 (ABCB1 transporter [3]): 12.1 µM
ABCB1 substrate classification (ABCB1 [4]): non-substrates of ABCB1
Combination index (CI) category, combination with DNR (MDCKII-ABCB1 cells; MDCKII-ABCB1, 72 h): synergistic category of drug combination effects across almost the whole fraction of cells affected (Fa) range
DRI at Fa 0.5, drug II (CDKi) (MDCKII-ABCB1 cells; [6]): 4.03±0.08
DRI at Fa 0.75, drug II (CDKi) (MDCKII-ABCB1 cells; [6]): 3.73±0.06
DRI at Fa 0.9, drug II (CDKi) (MDCKII-ABCB1 cells; [6]): 3.45±0.04
DRI at Fa 0.5, drug II (CDKi) (MDCKII parent cells): 2.41±0.03
DRI at Fa 0.75, drug II (CDKi) (MDCKII parent cells): 2.40±0.04
DRI at Fa 0.9, drug II (CDKi) (MDCKII parent cells): 2.39±0.06
Fa above which combination with DNR is synergistic (MDCKII parent cells): exceeded 0.4
Fa values for synergism of combination with DNR (HepG2 cells): 0.9
DRI at Fa 0.9, drug II (CDKi) (HepG2 cells): 1.68±0.03
Fa at which combination with DNR shows synergistic cytotoxic effects (HCT-8 cells): > 0.75
DRI at Fa 0.75, drug II (CDKi) (HCT-8 cells): 1.77±0.01
DRI at Fa 0.9, drug II (CDKi) (HCT-8 cells): 1.68±0.05
inhibition at 30 min (ABCB1 [5]): 86%

CC[C@H](CO)Nc1nc(NCc2ccccc2)c2ncn(C(C)C)c2n1 [roscovitine]
ABCB1 inhibition (DNR efflux) (ABCB1 transporter [1]): significant (P<0.05) ABCB1 inhibition
Effect on verapamil-stimulated vanadate-sensitive ATPase activity of ABCB1 (ABCB1 [2]): considerably and dose-dependently reduced
IC50 (ABCB1 transporter [3]): 10.3 µM
Effect on baseline vanadate-sensitive ATPase activity of ABCB1 (ABCB1 [4]): increased the baseline vanadate-sensitive ATPase activity
DRI at Fa 0.75, drug II (CDKi) (MDCKII-ABCB1 cells): 3.08±0.02
DRI at Fa 0.9, drug II (CDKi) (MDCKII-ABCB1 cells): 2.96±0.03
DRI at Fa 0.75, drug II (CDKi) (MDCKII parent cells): 2.29±0.05
DRI at Fa 0.9, drug II (CDKi) (MDCKII parent cells): 2.37±0.06
Fa above which combination with DNR is synergistic (MDCKII parent cells): > 0.45
Fa values for synergism of combination with DNR (HepG2 cells): 0.65
DRI at Fa 0.75, drug II (CDKi) (HepG2 cells): 2.51±0.02
DRI at Fa 0.9, drug II (CDKi) (HepG2 cells): 2.56±0.02
Fa at which combination with DNR shows synergistic cytotoxic effects (HCT-8 cells): > 0.3
DRI at Fa 0.5, drug II (CDKi) (HCT-8 cells): 2.49±0.02
DRI at Fa 0.75, drug II (CDKi) (HCT-8 cells): 2.29±0.03
DRI at Fa 0.9, drug II (CDKi) (HCT-8 cells): 2.11±0.06
inhibition at 30 min (ABCB1 [5]): 57%
